Measured values from article PMC5418314, “First-in-human phase I study of SOR-C13, a TRPV6 calcium channel inhibitor, in patients with advanced solid tumors” (Investigational New Drugs, 2017).
Where two headings read alike, the source gives them in different places. Ends that are not written are not given here.

How the values were obtained:
[1] = Phase I plasma pharmacokinetics; assay type: in vivo, human; settings: human, plasma, iv, 90-min IV infusion, plasma LC-MS
Method: Blood samples were taken on Days 1, 3, 8 and 10 of Cycle 1 to assess the pharmacokinetic (PK) profile of SOR-C13 at the various doses used. Plasma samples for the IV 20 min infusion were taken at pre-infusion, 5, 15 min after the start of infusion and post-infusion at 2, 5, 10 and 30 min and 1, 4 h. Plasma samples for SOR-C13 analysis for the 90 min infusion were taken pre-infusion, at 5, 15 and 45 min after the start of infusion, and at 2, 5, 10 and 30 min post-infusion. Since the infusion for the majority of patients, and further studies will be IV 90 min only PK data for this infusion time are presented. Validated liquid chromatography-mass spectrometry analysis provided the plasma concentration/time data.

[2] = peptide degradation in human plasma; assay type: in vitro ADME

## KEFLHPSKVDLPR [SOR-C13]
[1]; 2.75 mg/kg, Cohort 4: 2.75 mg/kg, N = 6, Cycle 1 Day 10, read-out: Peak plasma concentration, Median
  Cmax: 232 ng/mL
[1]; 2.75 mg/kg, Cohort 4: 2.75 mg/kg, N = 6, Cycle 1 Day 10, read-out: Time to peak plasma concentration, Mean (SD)
  Tmax: 36.6 min
[1]; 2.75 mg/kg, Cohort 4: 2.75 mg/kg, N = 6, Cycle 1 Day 10, read-out: Time to peak plasma concentration, Median
  Tmax: 30 min
[1]; 4.13 mg/kg, Cohort 5: 4.13 mg/kg, N = 3, Cycle 1 Day 1, read-out: AUCtau, Mean (SD)
  AUC(0-t): 78.4 ng·h/mL
[1]; 4.13 mg/kg, Cohort 5: 4.13 mg/kg, N = 3, Cycle 1 Day 1, read-out: AUCtau, Median
  AUC(0-t): 23.4 ng·h/mL
[1]; 4.13 mg/kg, Cohort 5: 4.13 mg/kg, N = 3, Cycle 1 Day 1, read-out: Peak plasma concentration, Mean (SD)
  Cmax: 139 ng/mL
[1]; 4.13 mg/kg, Cohort 5: 4.13 mg/kg, N = 3, Cycle 1 Day 1, read-out: Peak plasma concentration, Median
  Cmax: 42 ng/mL
[1]; 4.13 mg/kg, Cohort 5: 4.13 mg/kg, N = 3, Cycle 1 Day 1, read-out: Time to peak plasma concentration, Mean (SD)
  Tmax: 25 min
[1]; 4.13 mg/kg, Cohort 5: 4.13 mg/kg, N = 3, Cycle 1 Day 1, read-out: Time to peak plasma concentration, Median
  Tmax: 15 min
[1]; 4.13 mg/kg, Cohort 5: 4.13 mg/kg, N = 3, Cycle 1 Day 3, read-out: AUCtau, Mean (SD)
  AUC(0-t): 373 ng·h/mL
[1]; 4.13 mg/kg, Cohort 5: 4.13 mg/kg, N = 3, Cycle 1 Day 3, read-out: AUCtau, Median
  AUC(0-t): 403 ng·h/mL
[1]; 4.13 mg/kg, Cohort 5: 4.13 mg/kg, N = 3, Cycle 1 Day 3, read-out: Peak plasma concentration, Mean (SD)
  Cmax: 369 ng/mL
[1]; 4.13 mg/kg, Cohort 5: 4.13 mg/kg, N = 3, Cycle 1 Day 3, read-out: Peak plasma concentration, Median
  Cmax: 403 ng/mL
[1]; 4.13 mg/kg, Cohort 5: 4.13 mg/kg, N = 3, Cycle 1 Day 3, read-out: Time to peak plasma concentration, Mean (SD)
  Tmax: 35 min
[1]; 4.13 mg/kg, Cohort 5: 4.13 mg/kg, N = 3, Cycle 1 Day 3, read-out: Time to peak plasma concentration, Median
  Tmax: 45 min
[1]; 4.13 mg/kg, Cohort 5: 4.13 mg/kg, N = 3, Cycle 1 Day 8, read-out: AUCtau, Mean (SD)
  AUC(0-t): 197 ng·h/mL
[1]; 4.13 mg/kg, Cohort 5: 4.13 mg/kg, N = 3, Cycle 1 Day 8, read-out: AUCtau, Median
  AUC(0-t): 245 ng·h/mL
[1]; 4.13 mg/kg, Cohort 5: 4.13 mg/kg, N = 3, Cycle 1 Day 8, read-out: Peak plasma concentration, Mean (SD)
  Cmax: 212 ng/mL
[1]; 4.13 mg/kg, Cohort 5: 4.13 mg/kg, N = 3, Cycle 1 Day 8, read-out: Peak plasma concentration, Median
  Cmax: 264 ng/mL
[1]; 4.13 mg/kg, Cohort 5: 4.13 mg/kg, N = 3, Cycle 1 Day 8, read-out: Time to peak plasma concentration, Mean (SD)
  Tmax: 18.2 min
[1]; 4.13 mg/kg, Cohort 5: 4.13 mg/kg, N = 3, Cycle 1 Day 8, read-out: Time to peak plasma concentration, Median
  Tmax: 4.8 min
[1]; 4.13 mg/kg, Cohort 5: 4.13 mg/kg, N = 3, Cycle 1 Day 10, read-out: AUCtau, Mean (SD)
  AUC(0-t): 273 ng·h/mL
[1]; 4.13 mg/kg, Cohort 5: 4.13 mg/kg, N = 3, Cycle 1 Day 10, read-out: AUCtau, Median
  AUC(0-t): 324 ng·h/mL
[1]; 4.13 mg/kg, Cohort 5: 4.13 mg/kg, N = 3, Cycle 1 Day 10, read-out: Peak plasma concentration, Mean (SD)
  Cmax: 280 ng/mL
[1]; 4.13 mg/kg, Cohort 5: 4.13 mg/kg, N = 3, Cycle 1 Day 10, read-out: Peak plasma concentration, Median
  Cmax: 295 ng/mL
[1]; 4.13 mg/kg, Cohort 5: 4.13 mg/kg, N = 3, Cycle 1 Day 10, read-out: Time to peak plasma concentration, Mean (SD)
  Tmax: 21.6 min
[1]; 6.2 mg/kg, Cohort 6: 6.2 mg/kg, N = 6, Cycle 1 Day 1, read-out: AUCtau, Mean (SD)
  AUC(0-t): 1130 ng·h/mL
[1]; 6.2 mg/kg, Cohort 6: 6.2 mg/kg, N = 6, Cycle 1 Day 1, read-out: AUCtau, Median
  AUC(0-t): 570 ng·h/mL
[1]; 6.2 mg/kg, Cohort 6: 6.2 mg/kg, N = 6, Cycle 1 Day 1, read-out: Peak plasma concentration, Mean (SD)
  Cmax: 1150 ng/mL
[1]; 6.2 mg/kg, Cohort 6: 6.2 mg/kg, N = 6, Cycle 1 Day 1, read-out: Peak plasma concentration, Median
  Cmax: 682 ng/mL
[1]; 6.2 mg/kg, Cohort 6: 6.2 mg/kg, N = 6, Cycle 1 Day 1, read-out: Time to peak plasma concentration, Mean (SD)
  Tmax: 56.6 min
[1]; 6.2 mg/kg, Cohort 6: 6.2 mg/kg, N = 6, Cycle 1 Day 3, read-out: AUCtau, Mean (SD)
  AUC(0-t): 1100 ng·h/mL
[1]; 6.2 mg/kg, Cohort 6: 6.2 mg/kg, N = 6, Cycle 1 Day 3, read-out: AUCtau, Median
  AUC(0-t): 904 ng·h/mL
[1]; 6.2 mg/kg, Cohort 6: 6.2 mg/kg, N = 6, Cycle 1 Day 3, read-out: Peak plasma concentration, Mean (SD)
  Cmax: 1020 ng/mL
[1]; 6.2 mg/kg, Cohort 6: 6.2 mg/kg, N = 6, Cycle 1 Day 3, read-out: Peak plasma concentration, Median
  Cmax: 843 ng/mL
[1]; 6.2 mg/kg, Cohort 6: 6.2 mg/kg, N = 6, Cycle 1 Day 3, read-out: Time to peak plasma concentration, Mean (SD)
  Tmax: 27.7 min
[1]; 6.2 mg/kg, Cohort 6: 6.2 mg/kg, N = 6, Cycle 1 Day 3, read-out: Time to peak plasma concentration, Median
  Tmax: 9.9 min
[1]; 6.2 mg/kg, Cohort 6: 6.2 mg/kg, N = 6, Cycle 1 Day 8, read-out: AUCtau, Mean (SD)
  AUC(0-t): 1340 ng·h/mL
[1]; 6.2 mg/kg, Cohort 6: 6.2 mg/kg, N = 6, Cycle 1 Day 8, read-out: AUCtau, Median
  AUC(0-t): 843 ng·h/mL
[1]; 6.2 mg/kg, Cohort 6: 6.2 mg/kg, N = 6, Cycle 1 Day 8, read-out: Peak plasma concentration, Mean (SD)
  Cmax: 1440 ng/mL
[1]; 6.2 mg/kg, Cohort 6: 6.2 mg/kg, N = 6, Cycle 1 Day 8, read-out: Peak plasma concentration, Median
  Cmax: 826 ng/mL
[1]; 6.2 mg/kg, Cohort 6: 6.2 mg/kg, N = 6, Cycle 1 Day 8, read-out: Time to peak plasma concentration, Mean (SD)
  Tmax: 45.8 min
[1]; 6.2 mg/kg, Cohort 6: 6.2 mg/kg, N = 6, Cycle 1 Day 10, read-out: AUCtau, Mean (SD)
  AUC(0-t): 1430 ng·h/mL
[1]; 6.2 mg/kg, Cohort 6: 6.2 mg/kg, N = 6, Cycle 1 Day 10, read-out: AUCtau, Median
  AUC(0-t): 830 ng·h/mL
[1]; 6.2 mg/kg, Cohort 6: 6.2 mg/kg, N = 6, Cycle 1 Day 10, read-out: Peak plasma concentration, Mean (SD)
  Cmax: 1380 ng/mL
[1]; 6.2 mg/kg, Cohort 6: 6.2 mg/kg, N = 6, Cycle 1 Day 10, read-out: Peak plasma concentration, Median
  Cmax: 794 ng/mL
[1]; 6.2 mg/kg, Cohort 6: 6.2 mg/kg, N = 6, Cycle 1 Day 10, read-out: Time to peak plasma concentration, Mean (SD)
  Tmax: 36.1 min
[1]; 6.2 mg/kg, Cohort 6: 6.2 mg/kg, N = 6, Cycle 1 Day 10, read-out: Time to peak plasma concentration, Median
  Tmax: 30 min
[2]
  peptide degradation half-life: about 1 h
